Test results: patent publication US8592422B2, “Bicyclic triazole and pyrazole lactams as allosteric modulators of mGluR5 receptors” (Vanderbilt University, priority 2010, dated 2013)
pEC50: −log10 of the molar value. Several values for one entry are separate records, joined by “and”; a condition that tells them apart may be missing. Equal values may be shown once. Read-outs that look alike come from different tables or passages of the source.

Assays:
[1] = target: T1, human mGluR5a receptor (Homo sapiens, UniProt P41594); experiment: Cell-based functional Ca2+ mobilization assay (FDSS), potentiation of glutamate EC20 response; settings: for EC50 / pEC50: HEK cells transfected with human mGluR5 (H10H or H12H), in presence of EC20 glutamate; for pEC50: read-out: EC50
T1 construct: cDNA subcloned into pcDNA3.1(-)
T1 sequence (P41594 21-1180 isoform P41594-2 limits assumed): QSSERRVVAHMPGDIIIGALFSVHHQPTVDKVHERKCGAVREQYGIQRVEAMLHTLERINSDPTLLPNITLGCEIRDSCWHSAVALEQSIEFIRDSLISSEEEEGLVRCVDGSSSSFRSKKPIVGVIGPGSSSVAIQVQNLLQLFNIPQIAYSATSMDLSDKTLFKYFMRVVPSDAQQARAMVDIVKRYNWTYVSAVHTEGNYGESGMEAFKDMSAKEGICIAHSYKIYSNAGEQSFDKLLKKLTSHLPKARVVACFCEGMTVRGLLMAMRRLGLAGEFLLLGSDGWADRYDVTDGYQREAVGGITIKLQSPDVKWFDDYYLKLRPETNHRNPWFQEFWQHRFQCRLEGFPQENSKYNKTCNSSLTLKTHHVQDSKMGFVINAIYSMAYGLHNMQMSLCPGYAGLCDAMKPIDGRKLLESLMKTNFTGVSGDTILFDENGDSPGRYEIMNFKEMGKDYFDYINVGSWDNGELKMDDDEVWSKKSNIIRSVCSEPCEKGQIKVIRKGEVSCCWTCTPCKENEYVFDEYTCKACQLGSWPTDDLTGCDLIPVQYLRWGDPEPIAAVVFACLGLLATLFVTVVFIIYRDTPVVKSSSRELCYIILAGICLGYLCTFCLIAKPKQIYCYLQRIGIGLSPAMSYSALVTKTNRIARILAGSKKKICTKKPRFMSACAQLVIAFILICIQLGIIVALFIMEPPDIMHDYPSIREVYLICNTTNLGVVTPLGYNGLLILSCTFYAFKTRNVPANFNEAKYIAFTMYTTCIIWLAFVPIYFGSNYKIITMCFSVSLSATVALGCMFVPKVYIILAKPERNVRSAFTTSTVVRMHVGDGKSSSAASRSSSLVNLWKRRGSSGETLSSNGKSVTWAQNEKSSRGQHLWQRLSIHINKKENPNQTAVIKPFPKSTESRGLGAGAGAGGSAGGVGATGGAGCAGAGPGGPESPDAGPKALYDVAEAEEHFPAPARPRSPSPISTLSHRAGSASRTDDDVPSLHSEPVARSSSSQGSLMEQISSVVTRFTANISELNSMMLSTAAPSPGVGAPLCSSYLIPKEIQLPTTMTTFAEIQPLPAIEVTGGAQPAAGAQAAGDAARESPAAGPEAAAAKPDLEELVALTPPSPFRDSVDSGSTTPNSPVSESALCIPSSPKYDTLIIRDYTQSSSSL
Procedure, shortened: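 HEK293A cells stably expressing human mGluR5a (H10H or H12H clones), plated overnight in glutamate-glutamine-free medium, loaded with Ca2+-sensitive dye (e.g. Fluo-4) and read on FDSS.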

[2] = maximum % effect in concentration-response curve, as percent of response to maximally effective glutamate

Row | SMILES | EC50 ([1]; EC50 (nM)) [nM] | Emax [1, 2] [%] | melting point [°C] | pEC50 [1] | EC50 ([1]; read-out: pEC50 (converted)) | Emax (%) [1, 2] [%]
1 | O=C1c2cc(COc3ccccc3)nn2CCN1c1ncc(F)cn1 [Example 126] | 780 | 71 | 161.3 | – | – | –
2 | Cc1nc(N2CC(C)n3nc(COc4ccccc4)cc3C2=O)ccc1F (centres unmarked) [Example 134] | – | 70 | 87.4 | 7.20 | – | –
3 | C[C@@H]1Cn2nc(COc3ccccc3)cc2C(=O)N1CC1CC1 [Example 137] | – | 66 | 64.6 | 6.62 | – | –
4 | Cc1nc(N2C(=O)c3cc(COc4ccccc4)nn3C[C@@H]2C)ccc1F [Example 138] | – | 59 | 93.3 | 6.50 | – | –
5 | Cc1nc(N2C(=O)c3cc(COc4ccccc4)nn3C[C@H]2C)ccc1F [Example 140] | – | 68 | 156 | 6.77 | – | –
6 | C[C@@H]1Cn2nc(COc3ccccc3)cc2C(=O)N1c1ccc(F)cn1 [Example 141] | – | 66 | 71.9 | 6.71 | – | –
7 | COc1cc(N2C(=O)c3cc(COc4ccccc4)nn3C[C@H]2C)ccc1F [Example 143] | – | 62 | 135.8 | 7.09 | – | –
8 | Cc1cc(N2C(=O)c3cc(COc4ccccc4)nn3C[C@H]2C)ccc1F [Example 144] | – | 70 | 94.6 | – | 32.4 nM | –
9 | COc1ncccc1N1C(=O)c2cc(COc3ccccc3)nn2C[C@H]1C [Example 148] | – | 71 | 145.5 | 6.76 | – | –
10 | COc1nccnc1N1C(=O)c2cc(COc3ccccc3)nn2C[C@H]1C [Example 149] | – | 64 | 104.9 | 6.10 | – | –
11 | Cc1ccccc1N1C(=O)c2cc(COc3ccccc3)nn2C[C@H]1C [Example 154] | – | 72 | 171.5 | 7.54 | 29.5 nM | –
12 | Cc1cc(N2C(=O)c3cc(COc4ccccc4)nn3C[C@H]2C)ncc1F [Example 155] | – | 62 | 99.3 | 6.89 | – | –
13 | COc1nc(N2C(=O)c3cc(COc4ccccc4)nn3C[C@H]2C)ncc1C [Example 156] | – | 79 | > 300 | 6.27 | – | –
14 | O=C1c2cc(COc3ccncc3)nn2CCN1c1ccc(F)cc1 [Example 160] | – | 68 | 149.5 | 6.20 | – | –
15 | Cc1cccc(OCc2cc3n(n2)CCN(c2ccc(F)cc2)C3=O)c1 [Example 166] | – | 64 | 182.5 | 7.02 | – | –
16 | O=C1c2cc(COc3cncc(F)c3)nn2CCN1CC1CC1 [Example 171] | – | 51 | 110.7 | < 5.00 | – | –
17 | Cc1cc(OCc2cc3n(n2)CCN(c2ccc(F)cc2)C3=O)ccn1 [Example 174] | – | 34 | > 300 | 5.90 | – | –
18 | O=C1c2cc(COc3cccc(F)c3)nn2CCN1c1ccc(F)cn1 [Example 178] | – | 61 | > 300 | 6.94 | – | –
19 | O=C1c2cc(COc3ccc(F)cc3)nn2CCN1c1ccc(F)cn1 [Example 179] | – | 60 | > 300 | 6.82 | – | –

Row | SMILES | EC50 ([1]; EC50 (nM)) [nM] | Emax [1, 2] [%] | melting point [°C] | pEC50 [1] | EC50 ([1]; read-out: pEC50 (converted)) | Emax (%) [1, 2] [%]
20 | O=C1c2cc(COc3ccc(F)cn3)nn2CCN1c1ccc(F)cc1 [Example 181] | – | 52 | 239.4 | < 5.00 | – | –
21 | Cc1ccc(OCc2cc3n(n2)CCN(c2ccc(F)cc2)C3=O)nc1 [Example 183] | – | 15 | 236.2 | < 4.52 | – | –
22 | Cc1cccnc1OCc1cc2n(n1)CCN(c1ccc(F)cc1)C2=O [Example 185] | – | 51 | 270.1 | < 5.00 | – | –
23 | O=C1c2cc(COc3ncccc3F)nn2CCN1c1ccc(F)cc1 [Example 187] | – | 60 | 165 | 5.66 | – | –
24 | Cc1cnccc1OCc1cc2n(n1)CCN(c1ccc(F)cc1)C2=O [Example 189] | – | 45 | 168.3 | 5.31 | – | –
25 | O=C1c2cc(COc3ccccc3F)nn2CCN1c1ccc(F)cc1 [Example 190] | 145 | 66 | 183.3 | – | – | –
26 | Cc1ccccc1OCc1cc2n(n1)CCN(c1ccc(F)cc1)C2=O [Example 191] | – | 57 | 132.8 | 6.37 | – | –
27 | N#Cc1ccnc(OCc2cc3n(n2)CCN(c2ccc(F)cc2)C3=O)c1 [Example 193] | – | 53 | 202.6 | 6.36 | – | –
28 | O=C1c2cc(COc3ncccn3)nn2CCN1c1ccc(F)cc1 [Example 194] | – | 50 | 179.5 | < 5.00 | – | –
29 | COc1ccnc(OCc2cc3n(n2)CCN(c2ccc(F)cc2)C3=O)c1 [Example 195] | – | 40 | > 300 | < 5.00 | – | –
30 | O=C1c2cc(COc3cnccn3)nn2CCN1c1ccc(F)cc1 [Example 197] | – | 58 | 144.8 | < 5.00 | – | –
31 | Cc1cncc(OCc2cc3n(n2)CCN(c2ccc(F)cc2)C3=O)n1 [Example 200] | – | 21 | 156.6 | < 4.52 | – | –
32 | COc1cc(N2CCn3nc(COc4ccccn4)cc3C2=O)ccc1F [Example 204] | – | 69 | 143.9 | 6.39 | – | –
33 | Cc1cccc(N2CCn3nc(COc4ccccn4)cc3C2=O)n1 [Example 206] | – | 67 | 109.8 | 5.82 | – | –
34 | Cc1ccc(N2CCn3nc(COc4ccccn4)cc3C2=O)cc1 [Example 218] | – | 69 | > 300 | 6.33 | – | –
35 | COc1cccc(N2CCn3nc(COc4ccc(F)cc4)cc3C2=O)c1 [Example 220] | – | 63 | 130.4 | 6.46 | 355 nM | –
36 | COc1ccccc1N1CCn2nc(COc3ccc(F)cc3)cc2C1=O [Example 221] | – | 66 | 117.3 | 6.72 | – | –
37 | Cc1ccccc1N1CCn2nc(COc3ccc(F)cc3)cc2C1=O [Example 223] | – | 63 | 148.2 | 7.01 | 100 nM | –
38 | COc1ncccc1N1CCn2nc(COc3ccc(F)cc3)cc2C1=O [Example 229] | – | 66 | 267.4 | 6.42 | – | –

Row | SMILES | EC50 ([1]; EC50 (nM)) [nM] | Emax [1, 2] [%] | melting point [°C] | pEC50 [1] | EC50 ([1]; read-out: pEC50 (converted)) | Emax (%) [1, 2] [%]
39 | N#Cc1cccc(OCc2cc3n(n2)CCN(c2ccc(F)cn2)C3=O)c1 [Example 233] | – | 54 | 181.3 | 6.28 | – | –
40 | CC1CN(c2ccc(F)cc2)C(=O)c2cc(COc3cccc(C#N)c3)nn21 (centres unmarked) [Example 241] | – | 21 | 110.2 | < 4.52 | – | –
41 | Cc1cccc(OCc2cc3n(n2)C(C)CN(c2ccc(F)cc2)C3=O)c1 (centres unmarked) [Example 242] | – | 21 | 70.2 | < 4.52 | – | –
42 | CNc1nc(N2CCn3nc(COc4ccccc4)cc3C2=O)ncc1F [Example 279] | – | 69 | 176.6 | 6.65 | – | –
43 | CN(C)c1cncc(N2CCn3nc(COc4ccccc4)cc3C2=O)n1 [Example 280] | – | 70 | 215.1 | 6.45 | – | –
44 | CN(C)c1ccnc(N2CCn3nc(COc4ccccc4)cc3C2=O)c1 [Example 282] | – | 64 | 190.2 | 5.96 | – | –
45 | CN(C)c1cccc(N2CCn3nc(COc4ccccc4)cc3C2=O)n1 [Example 286] | – | 76 | 143.7 | 7.52 | 36.3 nM and 29.5 nM | 69
46 | CN(C)c1ccc(N2CCn3nc(COc4ccccc4)cc3C2=O)nc1 [Example 287] | – | 67 | 164.8 | 6.22 | – | –
47 | Cc1ccc(N(C)C)nc1N1CCn2nc(COc3ccccc3)cc2C1=O [Example 291] | – | 63 | 117.9 | 7.27 | – | –
48 | Cc1cc(F)cc(N2CCn3nc(COc4ccccc4)cc3C2=O)c1 [Example 297] | – | 71 | 116.3 | 7.12 | – | –
49 | COc1cc(F)cc(N2CCn3nc(COc4ccccc4)cc3C2=O)c1 [Example 299] | – | 64 | 127.8 | 6.96 | – | –
50 | O=C1c2cc(COc3ccccc3)nn2CCN1c1nccc(N2CCCC2)n1 [Example 309] | – | 56 | 143.2 | 5.45 | – | –
51 | CN(C)c1cccc(OCc2cc3n(n2)CCN(c2ccc(F)cc2)C3=O)n1 [Example 310] | – | 26 | 153.8 | < 4.52 | – | –
52 | CN(C)c1ccnc(OCc2cc3n(n2)CCN(c2ccc(F)cc2)C3=O)c1 [Example 312] | – | 25 | > 300 | < 4.52 | – | –
53 | CN(C)c1cccc(N2CCn3nc(COc4cccc(F)c4)cc3C2=O)n1 [Example 316] | – | 74 | 121.2 | – | 40.7 nM | –
54 | COc1nc(N2CCn3nc(COc4ccc(F)cc4)cc3C2=O)ncc1F [Example 318] | – | 72 | > 300 | 6.62 | – | –
55 | Cc1ccc(N2CCn3nc(COc4ccccc4)cc3C2=O)s1 [Example 319] | – | 68 | 194.5 | – | 28.8 nM | –
56 | Cn1cnc(N2CCn3nc(COc4ccccc4)cc3C2=O)c1 [Example 321] | – | 23 | 203.7 | < 4.52 | – | –
57 | COc1cnc(N2CCn3nc(COc4ccccc4)cc3C2=O)nc1 [Example 353] | – | 61 | 266.9 | 6.55 | – | –
